These results are taken from US20050032738A1, “Method of treating cancer by conjunctive therapy with 2'-haloemethylidene derivatives and a S-phase or M-phase specific antineoplastic agent” (Merrell Pharmaceuticals Inc., priority 1992, published 2005).

One experiment has as its system B16 melanoma. Description: Antitumor activity against B16 melanoma in mice. The class given is in vivo. The settings on record: B16 melanoma s.c. day 0, i.p. once daily, 101,731 5 mg/kg day 1-7, Ara-C 10 mg/kg day 7-14; for % Inhibition (tumor weight): day 15; for Tumor Weight (g) (Mean ± S.D.): tumors weighed day 15. From the text:
Inject B16 melanoma cells (1×10^5 cells/mouse) subcutaneously on day 0. Administer compounds i.p. once daily as indicated. Sacrifice the animals on day 15, dissect the tumors and weigh.

In a further experiment the test system is Lewis lung carcinoma. The experiment in a line: Antitumor activity against Lewis lung carcinoma in mice (tumor weight, pulmonary metastatic foci). The class given is in vivo. The settings on record: i.p. once daily, 101,731 5 mg/kg day 1-7, Ara-C 10 mg/kg day 7-14; for % Inhibition (tumor weight) / Tumor Weight (g) (Mean ± S.D.): 3LL cells s.c. day 0; for % Inhibition (tumor weight) / % Inhibition (No. of foci) / No. of Foci (Mean ± S.D.): day 15; for Tumor Weight (g) (Mean ± S.D.): tumors weighed day 15; for % Inhibition (No. of foci) / No. of Foci (Mean ± S.D.): pulmonary metastatic foci. From the text: Inject 3 LL cells (1×10^5/mouse) s.c. on day 0. Administer compounds i.p., once daily as indicated. Sacrifice animals on day 15, dissect the tumors and weigh. Also count pulmonary metastatic foci.

The test system of the next experiment is HeLa cells. Description: Antiproliferative activity against HeLa cells (MTT cell viability). The settings on record: for IC50: Homo sapiens, HeLa, 72 h, read-out: Drug Alone IC50.

The structures appear in SMILES notation. In brackets after ≈: the same amount, converted by molar mass.

On to `Nc1ccn([C@@H]2O[C@H](CO)[C@@H](O)/C2=C\F)c(=O)n1` [101,731, (E)-2′-deoxy-2′-fluoromethylidenecytidine], for which, in the experiment on B16 melanoma, the “% Inhibition (tumor weight)” value came out at 10% and the “Tumor Weight (g) (Mean ± S.D.)” value worked out at 2.4 ± 0.9 g. In the experiment on Lewis lung carcinoma, the “% Inhibition (tumor weight)” value turned out to be 20%, the “Tumor Weight (g) (Mean ± S.D.)” value is reported as 2.8 ± 0.6 g, the “% Inhibition (No. of foci)” value was found to be 0% and the “No. of Foci (Mean ± S.D.)” value turned out to be 15.5 ± 6. Also, the “Effect on the growth of the tumor cells” value in the experiment on HeLa cells (MDL 101,731 alone, 15 ng/mL for 24 hours, HeLa cells) was “did not show any effect”.
On to `Nc1ccn([C@@H]2O[C@H](CO)[C@@H](O)[C@@H]2O)c(=O)n1` [Ara-C, Cytosine Arabinoside], for which, in the experiment on B16 melanoma, the “% Inhibition (tumor weight)” value is on record as 0% and the “Tumor Weight (g) (Mean ± S.D.)” value was found to be 3.6 ± 0.8 g. Also, in the experiment on Lewis lung carcinoma, the “% Inhibition (tumor weight)” value stood at 0%, the “Tumor Weight (g) (Mean ± S.D.)” value was found to be 3.83 ± 0.8 g, the “% Inhibition (No. of foci)” value came to 0% and the “No. of Foci (Mean ± S.D.)” value is 14.6 ± 5. For the same molecule, in the experiment on HeLa cells (HeLa cells pretreated with MDL 101,731 15 ng/mL for 24 hours, washed, then drug for 72 hours, MTT), the “Drug + 101,731 IC50” value was 3.2 µg/mL. The “Drug Alone IC50” value with HeLa cells (HeLa cells, 72 hours exposure to drug, MTT) is 13.7 µg/mL.
Regarding `CC[C@]1(O)C[C@@H]2CN(CCc3c([nH]c4ccccc34)[C@@](C(=O)OC)(c3cc4c(cc3OC)N(C)[C@H]3[C@@](O)(C(=O)OC)[C@H](OC(C)=O)[C@]5(CC)C=CCN6CC[C@]43[C@@H]65)C2)C1` [Vinblastine (VLB), Vinblastine], the IC50 in the experiment on HeLa cells turned out to be 86.7 µg/mL (≈ 107 µM).
Take `O=c1[nH]cc(F)c(=O)[nH]1` [5-Fluorouracil (5Fu), 5-Fluorouracil]: the IC50 with HeLa cells amounted to 41.1 µg/mL (≈ 316 µM).

For orientation: IC50 means the concentration at which inhibition is half-maximal.
